Laboratory results published in ChEMBL document CHEMBL6153095, “Dihydroaurones and Isoflavan Derivatives from the Roots of Glycyrrhiza asymmetrica” (J Nat Prod, 2025).
Active and inactive are the calls of the source.

Assays:
Assay type in all cases: functional, cell-based
[1] = test system: HeLa; experiment: Cytotoxicity against human HeLa cells assessed as reduction in cell viability at 10 uM by MTT assay
[2] = test system: MCF7; experiment: Cytotoxicity against human MCF7 cells assessed as reduction in cell viability at 10 uM by MTT assay
[3] = test system: HepG2; experiment: Cytotoxicity against human HepG2 cells assessed as reduction in cell viability at 10 uM by MTT assay
[4] = test system: A549; experiment: Cytotoxicity against human A549 cells assessed as reduction in cell viability at 10 uM by MTT assay

Measured: Activity

COc1ccc([C@H]2COc3c(ccc(O)c3CC=C(C)C)C2)c(O)c1
inactive: all assays above

CC(C)=CCc1cc2c(cc1O)OC[C@H](c1ccc(O)cc1O)[C@@H]2c1cc([C@H]2COc3c(ccc(O)c3CC=C(C)C)C2)c(O)cc1O
inactive: all assays above

CC(C)=CCc1c(O)ccc2c1OC[C@H](c1ccc(O)cc1O)C2
inactive: all assays above

CC(C)=CCc1c(O)ccc([C@@H]2COc3c(ccc(O)c3CC=C(C)C)C2)c1O
inactive: all assays above

CC(C)=CCc1cc([C@@H]2CC(=O)c3ccc(O)cc3O2)ccc1O
inactive: all assays above

CC1(C)CCc2c(ccc3c2OC[C@@H](c2ccc(O)cc2O)C3)O1
inactive: all assays above

CC(C)=CCc1c(O)cc(O)cc1/C=C/c1ccc(O)cc1
inactive: all assays above

COc1ccc(C[C@H]2Oc3cc(O)ccc3/C2=C/C(=O)O)cc1
inactive: all assays above

CC(C)=CCc1c(O)ccc2c1OC[C@H](c1cc([C@@H]3c4ccc(O)c(CC=C(C)C)c4OC[C@@H]3c3ccc(O)cc3O)c(O)cc1O)C2
inactive: all assays above

CC(C)=CCc1cc([C@H]2Oc3cc(O)cc(O)c3C(=O)[C@@H]2O)ccc1O
inactive: all assays above

O=C(O)/C=C1/c2ccc(O)cc2O[C@@H]1Cc1ccc(O)cc1
inactive: all assays above

CC(C)(O)CCc1c(O)ccc2c1OC[C@H](c1ccc(O)cc1O)C2
inactive: all assays above

COc1ccc(-c2coc3cc(O)ccc3c2=O)cc1
inactive: all assays above

COc1cc(O)ccc1[C@H]1COc2cc(O)ccc2[C@H]1c1cc2c(c(CC=C(C)C)c1O)OC[C@@H](c1ccc(O)cc1O)C2
inactive: all assays above

COc1ccc(-c2coc3c(CC=C(C)C)c(O)ccc3c2=O)cc1
inactive: all assays above

COc1ccc(C2COc3cc4c(cc3C2)C=CC(C)(C)O4)c(O)c1 (configuration not stated)
inactive: all assays above

COc1ccc([C@@H]2COc3c(ccc(O)c3CC=C(C)C)C2=O)c(O)c1
inactive: all assays above

CC(C)=CCc1cc2c(cc1O)OC[C@H](c1ccc(O)cc1O)[C@@H]2c1cc2c(c(CC=C(C)C)c1O)OC[C@@H](c1ccc(O)cc1O)C2
inactive: all assays above

CC(C)=CCc1c(O)ccc([C@@H]2COc3c(ccc(O)c3CC=C(C)C)C2=O)c1O
inactive: all assays above

COc1ccc([C@@H]2COc3cc(O)ccc3C2)c(O)c1
inactive: all assays above

CC(C)=CCc1c(O)ccc2c1OC[C@@H](c1ccc(O)cc1O)C2=O
inactive: all assays above

CC(C)=CCc1cc([C@H]2Oc3cc(O)ccc3C(=O)[C@@H]2O)ccc1O
inactive: all assays above

CC1(C)CCc2c(ccc3c2OC[C@@H](c2ccc(O)cc2O)C3=O)O1
inactive: all assays above
